# Assay results: PubChem BioAssay (NCI)
#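 Five compound concentrations were applied to cells in 96-well plates for 48 hours; endpoints were derived by simple linear interpolation of the resulting dose-response curve. TGI: concentration producing complete growth inhibition.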
# Tests used:
# Test in all cases: NCI-60 cell line screen, 48 h
# ACHN renal = system: ACHN renal
# SR leukemia = system: SR leukemia
# SNB-75 CNS = system: SNB-75 CNS
# NCI-H23 lung = system: NCI-H23 lung
# UACC-62 melanoma = system: UACC-62 melanoma
# SK-OV-3 ovarian = system: SK-OV-3 ovarian
# OVCAR-3 ovarian = system: OVCAR-3 ovarian
# TK-10 renal = system: TK-10 renal
# SK-MEL-2 melanoma = system: SK-MEL-2 melanoma
# K-562 leukemia = system: K-562 leukemia
# COLO 205 colon = system: COLO 205 colon
# SF-295 CNS = system: SF-295 CNS
# OVCAR-8 ovarian = system: OVCAR-8 ovarian
# U251 CNS = system: U251 CNS
# SNB-19 CNS = system: SNB-19 CNS
# SF-539 CNS = system: SF-539 CNS
# MCF7 breast = system: MCF7 breast
# HS 578T breast = system: HS 578T breast
# T-47D breast = system: T-47D breast
Structure (SMILES),TGI (ACHN renal),TGI (SR leukemia),TGI (SNB-75 CNS),TGI (NCI-H23 lung),TGI (UACC-62 melanoma),TGI (SK-OV-3 ovarian),TGI (OVCAR-3 ovarian),TGI (TK-10 renal),TGI (SK-MEL-2 melanoma),TGI (K-562 leukemia),TGI (COLO 205 colon),TGI (SF-295 CNS),TGI (OVCAR-8 ovarian),TGI (U251 CNS),TGI (SNB-19 CNS),TGI (SF-539 CNS),TGI (MCF7 breast),TGI (HS 578T breast),TGI (T-47D breast)
CC(=O)C(CN(C)C)C(c1ccccc1)c1c(O)c2ccccc2oc1=O (stereo not given),> 100 µM,> 100 µM,88.5 µM,> 100 µM,> 100 µM,> 100 µM,> 100 µM,> 100 µM,> 100 µM,> 100 µM,> 100 µM,> 100 µM,> 100 µM,> 100 µM,> 100 µM,> 100 µM,,,
N#Cc1nc(-c2ccccn2)oc1N,> 100 µM,> 100 µM,,> 100 µM,> 100 µM,> 100 µM,> 100 µM,> 100 µM,> 100 µM,> 100 µM,> 100 µM,> 100 µM,,> 100 µM,> 100 µM,,> 100 µM,> 100 µM,
O=C(Nc1cc(Cl)cc(Cl)c1)/C(Cc1nc2ccccc2[nH]c1=O)=N/NC(=O)c1ccncc1,> 100 µM,,,,> 100 µM,> 100 µM,> 100 µM,> 100 µM,> 100 µM,> 100 µM,> 100 µM,> 100 µM,> 100 µM,> 100 µM,> 100 µM,> 100 µM,,,
CO[C@@H]1C[C@H]2N3CC[C@@]2(c2cc4c(cc2C3)OCO4)[C@H]2O[C@@H]12,> 100 µM,,> 100 µM,> 100 µM,> 100 µM,> 100 µM,> 100 µM,> 100 µM,> 100 µM,> 100 µM,2.24 µM,> 100 µM,> 100 µM,> 100 µM,> 100 µM,2.88 µM,> 100 µM,> 100 µM,
CN(C)S(=O)(=O)n1cnc(CO)c1,> 100 µM,,> 100 µM,> 100 µM,,> 100 µM,> 100 µM,> 100 µM,> 100 µM,> 100 µM,> 100 µM,> 100 µM,,> 100 µM,> 100 µM,> 100 µM,> 100 µM,,> 100 µM
O=S(=O)(c1ccccc1)n1cc(C[P+](c2ccccc2)(c2ccccc2)c2ccccc2)c2ccccc21,28.7 µM,31.6 µM,12.6 µM,17.8 µM,17.8 µM,7.86 µM,13.5 µM,16.9 µM,5.87 µM,14.2 µM,4.78 µM,24.3 µM,12.6 µM,15.8 µM,6.77 µM,16.8 µM,,,
COC(=O)[C@]1(c2cc3ccccc3[nH]2)CC2CN(CC(=O)N(C)OC)C1CC2(OC)OC (stereo not given in full),> 100 µM,,> 100 µM,> 100 µM,> 100 µM,> 100 µM,> 100 µM,> 100 µM,> 100 µM,66.4 µM,> 100 µM,> 100 µM,> 100 µM,30.7 µM,> 100 µM,> 100 µM,> 100 µM,,57.1 µM
Cc1ccc(N=NN(C)C(=O)C(C)N)cc1 (stereo not given),> 100 µM,> 100 µM,> 100 µM,> 100 µM,> 100 µM,,> 100 µM,> 100 µM,> 100 µM,> 100 µM,> 100 µM,> 100 µM,> 100 µM,> 100 µM,> 100 µM,> 100 µM,> 100 µM,,> 100 µM
NC(=O)N/N=C(/Cc1nc2ccc(C(=O)c3ccccc3)cc2[nH]c1=O)C(=O)Nc1ccc(C(F)(F)F)cc1[N+](=O)[O-],> 100 µM,> 100 µM,97.3 µM,> 100 µM,> 100 µM,> 100 µM,> 100 µM,> 100 µM,> 100 µM,> 100 µM,> 100 µM,> 100 µM,> 100 µM,> 100 µM,> 100 µM,> 100 µM,,,
C[C@@H]1C2=CC[C@@]3(C)C(CCC3[C@H](C)[C@H]3C[C@@]4(C)O[C@@](c5cccnc5)(O3)OC4(C)C)[C@@H]2C2OC2[C@@]12CCC(=O)O2 (stereo not given in full),> 100 µM,> 100 µM,> 100 µM,> 100 µM,> 100 µM,> 100 µM,85.9 µM,> 100 µM,58.6 µM,> 100 µM,77.2 µM,> 100 µM,> 100 µM,> 100 µM,> 100 µM,> 100 µM,,,
CCN(CC)c1ccc2cc(-c3nnc(-c4ccccc4O)o3)c(=O)oc2c1,24.2 µM,33.7 µM,,24.8 µM,23.4 µM,> 100 µM,21.1 µM,,30.2 µM,> 100 µM,33.6 µM,29.7 µM,11.9 µM,21 µM,26.9 µM,22.4 µM,> 100 µM,57.6 µM,
CCN(CC)CCCNc1nc(=O)[nH]c(C)c1C(=O)Nc1ccc2c(c1)c1ccccc1n2CC,> 100 µM,,> 100 µM,> 100 µM,> 100 µM,> 100 µM,> 100 µM,> 100 µM,> 100 µM,> 100 µM,> 100 µM,> 100 µM,> 100 µM,> 100 µM,> 100 µM,> 100 µM,> 100 µM,,> 100 µM
CC1(C)OCC([C@H]2CC23SCCCS3)O1 (stereo not given in full),> 100 µM,> 100 µM,> 100 µM,> 100 µM,> 100 µM,> 100 µM,,> 100 µM,> 100 µM,> 100 µM,> 100 µM,> 100 µM,> 100 µM,> 100 µM,> 100 µM,> 100 µM,,,
CC(C)(C)OC/C=C1\C(=O)O[C@H]2C[C@@H](O[Si](C)(C)C(C)(C)C)C[C@@H]12,> 100 µM,> 100 µM,> 100 µM,> 100 µM,,> 100 µM,> 100 µM,> 100 µM,> 100 µM,> 100 µM,> 100 µM,> 100 µM,> 100 µM,> 100 µM,> 100 µM,,> 100 µM,,> 100 µM
[O-][N+]1=NC(c2ccccc2)=C1c1ccccc1,> 50 µM,,> 50 µM,> 50 µM,> 50 µM,> 50 µM,> 50 µM,> 50 µM,> 50 µM,> 50 µM,> 50 µM,> 50 µM,> 50 µM,> 50 µM,> 50 µM,> 50 µM,> 50 µM,> 50 µM,
O=c1[nH]nc(Cn2c3ccc(Br)cc3c3nc4ccccc4nc32)n1C1CCCCC1,> 100 µM,> 100 µM,> 100 µM,40.9 µM,81.1 µM,> 100 µM,> 100 µM,> 100 µM,> 100 µM,> 100 µM,> 100 µM,> 100 µM,> 100 µM,> 100 µM,> 100 µM,46 µM,> 100 µM,,> 100 µM
SCc1ccc(CS)s1,,> 100 µM,> 100 µM,> 100 µM,> 100 µM,> 100 µM,> 100 µM,> 100 µM,,> 100 µM,> 100 µM,> 100 µM,> 100 µM,> 100 µM,> 100 µM,> 100 µM,> 100 µM,,> 100 µM
CC1(S)CC2C(CC1Sc1ccccc1)C2(C)C (stereo not given),> 100 µM,,> 100 µM,> 100 µM,,> 100 µM,> 100 µM,> 100 µM,> 100 µM,> 100 µM,> 100 µM,> 100 µM,> 100 µM,> 100 µM,,> 100 µM,,,
NCCCCC(=O)c1cccnc1,,> 100 µM,,> 100 µM,> 100 µM,> 100 µM,> 100 µM,> 100 µM,> 100 µM,> 100 µM,,> 100 µM,> 100 µM,> 100 µM,> 100 µM,> 100 µM,,,
Cc1cnc2c(c1)C(=O)C1=C(OC(C)(C)CC1O)C2=O (stereo not given),29 µM,> 100 µM,28.5 µM,26.2 µM,12.6 µM,36.5 µM,23.4 µM,34.1 µM,> 100 µM,46.4 µM,32.4 µM,26.6 µM,35.6 µM,29.3 µM,31.6 µM,31.4 µM,,,
Cc1c(N/C=C(\C#N)C(=O)c2ccc(Cl)cc2)c(=O)n(-c2ccccc2)n1C,,,> 100 µM,> 100 µM,> 100 µM,> 100 µM,> 100 µM,> 100 µM,> 100 µM,> 100 µM,> 100 µM,> 100 µM,> 100 µM,> 100 µM,> 100 µM,> 100 µM,> 100 µM,,
COC(=O)C1=CN(C2CCCCC2)C2(c3ccccc3)c3ccccc3C(=O)OC(=O)C12 (stereo not given),> 100 µM,,> 100 µM,> 100 µM,,> 100 µM,> 100 µM,> 100 µM,> 100 µM,> 100 µM,> 100 µM,> 100 µM,> 100 µM,> 100 µM,> 100 µM,> 100 µM,> 100 µM,,
